According to patent US20200038418A1, “METHODS OF TREATING AUTISM SPECTRUM DISORDER USING AMINOSTEROL COMPOSITIONS” (Enterin, Inc., priority 2018, published 2020):

Key:
[1] = tested on: patients with PD and constipation; assay: Stage 2 CNS symptoms (UPDRS, MMSE, PDHQ, BDI-II); format: in vivo, human; settings: for UPDRS Part 1 (NMS) (Mean, SD) / BDI-II (Mean, SD) / PDHQ (Mean, SD): n = 34; for hallucinations and delusions improved or disappeared: during treatment, patients with hallucinations or delusions at baseline
Text: (9) Unified Parkinson's Disease Rating Scale (UPDRS), which consists of 42 items in four subscales (Part I=Non-Motor Aspects of Experiences of Daily Living (nM-EDL) (1.1 cognitive impairment, 1.2 hallucinations and psychosis, 1.3 depressed mood, Part II=Motor Aspects of Experiences of Daily Living (M-EDL), Part III=Motor Examination, and Part IV=Motor Complications;
Exploratory end-points, in addition to constipation, included for example, (i) depression assessed using the Beck Depression Inventory (BDI-II) (Steer et al. 2000) and Unified Parkinson's Disease Rating Scale (UPDRS); (ii) cognition assessed using the Mini Mental State Examination (MMSE) (Palsteia et al., 2018), Unified Parkinson's Disease Rating Scale (UPDRS), and Trail Making Test (TMT); (iii) sleep and REM-behavior disorder (RBD) using a daily sleep diary, I-Button Temperature Assessment, a REM sleep behavior disorder (RBD) questionnaire (RBDQ) (Stiasny-Kolster et al. 2007), and the UPDRS; (iv) hallucinations assessed using the PD hallucinations questionnaire (PDHQ) (Papapetropoulos et al. 2008), the UPDRS, and direct questioning; (v) fatigue using the Parkinson's Disease Fatigue Scale (PFS-16) and the UPDRS; (vi) motor functions using the UPDRS; and (vii) non-motor functions using the UPDRS.
(§1) Assessments were made at baseline and at the end of the fixed dose and washout periods. Circadian system status was evaluated by continuously monitoring wrist skin temperature (Thermochron iButton DS1921H; Maxim, Dallas) following published procedures (Sarabia et al. 2008).
An exploratory analysis was done with respect to the sleep data, the body temperature data, mood, fatigue, hallucinations, cognition and other motor and non-motor symptoms of PD. Continuous measurements within a subject were compared with a paired t-test and continuous measurements between subject groups were compared with a two-group t-test. Categorical data were compared with a chi-squared test or a Fisher's exact test if the expected cell counts are too small for a chi-squared test.

[2] = tested on: C. elegans model of PD; settings: C. elegans model of PD in vivo; cited from earlier work
[3] = Solubility in water; format: physicochemical; settings: pH<3.5 (the pH of gastric fluid)
[4] = Phase 2 trial Stage 2, adverse events; format: in vivo, human
Description: In Stage 2, 34 patients were evaluated.

[5] = tested on: patients with PD and constipation; assay: Circadian rhythm of wrist skin temperature; format: in vivo, human
Description: (6) I-Button Temperature Assessment. The I-Button is a small, rugged self-sufficient system that measures temperature and records the results in a protected memory section. The Thermochron I-Button DS1921H (Maxim Integrated, Dallas, Tex.) was used for skin temperature measurement. I-Buttons were programmed to sample every 10 mins., and attached to a double-sided cotton sport wrist band using Velcro, with the sensor face of the I-Button placed over the inside of the wrist, on the radial artery of the dominant hand. Subjects removed and replaced the data logger when necessary (i.e., to have a bath or shower). The value of skin temperature assessment in sleep research is that the endogenous skin warming resulting from increased skin blood flow is functionally linked to sleep propensity. From the collected data, the mesor, amplitude, acrophase (time of peak temperature), Rayleight test (an index of interdaily stability), mean waveforms are calculated);
as §1
Circadian rhythm of skin temperature was evaluable in 12 patients (i.e., those who had recordings that extended from baseline through washout). Circadian system functionality was evaluated by continuously monitoring wrist skin temperature using a temperature sensor (Thermochron iButton DS1921H; Maxim, Dallas, Tex.) (Sarabia et al. 2008). A nonparametric analysis was performed for each participant to characterize DST as previously described (Sarabia et al. 2008; Ortiz-Tudela et al. 2010).
Briefly, this analysis includes the following parameters: (i) the inter-daily stability (the constancy of 24-hour rhythmic pattern over days, IS); (ii) intra-daily variability (rhythm fragmentation, IV); (iii) average of 10-minute intervals for the 10 hours with the minimum temperature (L10); (iv) average of 10-minute intervals for the 5 hours with the maximum temperature (M5) and the relative amplitude (RA), which was determined by the difference between M5 and L10, divided by the sum of both. Finally, the Circadian Function Index (CFI) was calculated by integrating IS, IV, and RA. Consequently, CFI is a global measure that oscillates between 0 for the absence of circadian rhythmicity and 1 for a robust circadian rhythm (Ortiz-Tudela et al., 2010).

[6] = Stage 2, fixed dose (during treatment)
[7] = Stage 2, fixed dose (during treatment), listed as Squalamine (ENT-01)
[8] = Stage 2, wash-out, listed as Squalamine (ENT-01)
[9] = Stage 2 (34 dosed), daily oral dosing
[10] = Stage 2 (34 dosed), daily oral dosing, unrelated to ENT-01
[11] = fixed dose vs baseline, 12 patients

In the case of `CC(C)[C@@H](CC[C@@H](C)[C@H]1CC[C@H]2[C@@H]3[C@H](O)C[C@H]4C[C@@H](NCCCNCCCCN)CC[C@]4(C)[C@H]3CC[C@]12C)OS(=O)(=O)O` (single isomer, unassigned) [squalamine (ENT-01), squalamine], the “time hallucinations and delusions did not return following discontinuation” value ([1]; 1 patient) is reported as 4 weeks, the “UPDRS Part 1 (NMS) (Mean, SD)” value ([1]; Stage 2, end of fixed dose) is reported as 10.6 (6.18)) and the “UPDRS Part 1 (NMS) (Mean, SD)” value ([1]; Stage 2, end of wash-out) is reported as 9.5 (5.27). For the same molecule, the “UPDRS Part 1 (NMS) (Mean, SD)” value ([1]; Stage 2, end of wash-out, listed as aminosterol) was 9.5, the “BDI-II (Mean, SD)” value [1, 6] was 9.9 and the “PDHQ (Mean, SD)” value [1, 6] was 1.8. The “BDI-II (Mean, SD)” value [1, 7] was 9.9 (6.45), the “PDHQ (Mean, SD)” value [1, 7] was 1.8 (3.34) and the “BDI-II (Mean, SD)” value ([1]; Stage 2, fixed dose (during treatment), listed as aminosterol) was 9.9. For the same molecule, the “BDI-II (Mean, SD)” value ([1]; Stage 2, wash-out) was 8.7, the “PDHQ (Mean, SD)” value ([1]; Stage 2, wash-out) was 0.9 and the “BDI-II (Mean, SD)” value [1, 8] was 8.7 (5.19). The “PDHQ (Mean, SD)” value [1, 8] was 0.9 (2.33), the “BDI-II (Mean, SD)” value ([1]; Stage 2, wash-out, listed as aminosterol) was 8.7 and the “time hallucinations and delusions did not return following discontinuation” value ([1]; another patient) was 2 weeks. For the same molecule, the “hallucinations and delusions improved or disappeared” value [1] was 5 of 6, the “hallucinations and delusions improved or disappeared” value ([1]; listed as ENT-01) was “five” and the “formation of aggregates of αS” value [2] was “inhibit the formation of aggregates of αS”. For the same molecule, the dissolution [3] was “readily dissolves”, the “Abdominal pain, Mild” value [4, 9] was 4(11.7) n, % and the “Abdominal pain, Moderate” value [4, 9] was 2(5.8) n, %. The “Blood in urine, Moderate” value [4, 9] was 0 n, %, the “Diarrhea, Mild” value [4, 9] was 12(35) n, % and the “Diarrhea, Moderate” value [4, 9] was 2(5.8) n, %. The “Diarrhea, Severe” value [4, 9] was 1(2.9) n, %, the “Difficulty falling asleep, Mild” value [4, 9] was 1(3) n, % and the “Difficulty falling asleep, Moderate” value [4, 9] was 0 n, %. For the same molecule, the “Dizziness, Mild” value [4, 9] was 7(20.5) n, %, the “Dizziness, Moderate” value [4, 9] was 1(2.9) n, % and the “Eye infection, Mild” value [4, 9] was 1(3) n, %. The “Eye infection, Moderate” value [4, 9] was 0 n, %, the “Flatulence, Mild” value [4, 9] was 1(3) n, % and the “Flatulence, Moderate” value [4, 9] was 0 n, %. The “Headache, Mild” value [4, 9] was 3(8.8) n, %, the “Headache, Moderate” value [4, 9] was 0 n, % and the “Increased urinary frequency, Mild” value [4, 9] was 2(5.8) n, %. For the same molecule, the “Increased urinary frequency, Moderate” value [4, 9] was 0 n, %, the “Loss of appetite, Moderate” value [4, 9] was 0 n, % and the “Nausea, Mild” value [4, 9] was 18(52) n, %. For the same molecule, the “Nausea, Moderate” value [4, 9] was 1(2.9) n, %, the “Skin lesions-rash, Mild” value [4, 9] was 3(8.8) n, % and the “Skin lesions-rash, Moderate” value [4, 9] was 0 n, %. For the same molecule, the “Urinary retention, Mild” value [4, 9] was 1(3) n, %, the “Urinary retention, Moderate” value [4, 9] was 0 n, % and the “Urinary tract infection, Mild” value [4, 9] was 1(3) n, %. The “Urinary tract infection, Moderate” value [4, 9] was 2(5.8) n, %, the “Vomiting, Mild” value [4, 9] was 2(5.8) n, % and the “Vomiting, Moderate” value [4, 9] was 0 n, %. For the same molecule, the “Worsening acid reflux, Mild” value [4, 9] was 4(11.7) n, %, the “Worsening acid reflux, Moderate” value [4, 9] was 0 n, % and the “Worsening hemorrhoid, Mild” value [4, 9] was 1(3) n, %. The “Worsening hemorrhoid, Moderate” value [4, 9] was 0 n, %, the “Blood in urine, Mild” value [4, 10] was 0 n, % and the “Loss of appetite, Mild” value [4, 10] was 0 n, %. The “Lower GI bleed, Severe” value ([4]; Stage 2, daily oral dosing, colonic diverticulosis, polyp, patient on aspirin, Plavix and naproxen, unrelated to ENT-01) was 1(2.5) n, %, the “circadian function index (CFI)” value [5, 11] was “increasing” and the “relative amplitude (RA)” value [5, 11] was “increasing”. The “rhythm fragmentation (intra-daily variability, IV)” value [5, 11] was “reducing”, the “rhythm stability (inter-daily stability, IS)” value [5, 11] was “increasing” and the “impact on the circadian rhythm of skin temperature” value ([5]; oral administration, 12 patients with evaluable data) was “significant positive impact”. The “circadian function index (CFI)” value ([5]; wash-out period, 12 patients) was “improvement persisted” and the “rhythm stability (IS)” value ([5]; wash-out period, 12 patients) was “improvement persisted”.
